In brackets after ≈: the same amount, converted by molar mass. Several values for one entry are separate records, joined by “and”; a condition that tells them apart may be missing. Identical values can stand only once. Like-named read-outs stand apart in the source and are kept apart here.
What was measured:
in vitro = conditions: human, 90 min, no verapamil; for Papp A→B: Caco-2, pH 7.4, Papp (AB); for Papp B→A: Caco-2, pH 7.4, Papp (BA)
[1] = Preliminary thermal stability, heating at 100 °C for 5 min; assay type: physicochemical; conditions: monitored by 1H NMR and LC-MS
From the text: In addition, we checked the preliminary thermal stability of two representative 3‐oxabicyclo[3.1.1]heptanes: carboxylic acid 11b and N‐Boc amino acid 40.

[2] = Experimental pKa of carboxylic acids; assay type: physicochemical; conditions: for pKa: read-out: pKa (exp.)
From the text: We also studied the influence of the replacement of the methylene group for the oxygen atom in the bicyclo[3.1.1]heptane skeleton on the electronic properties. For that, we experimentally measured pK a values of the bicyclo[3.1.1]heptane carboxylic acid 49, the 3‐oxabicyclo[3.1.1]heptane carboxylic acid 18b, and meta‐methyl benzoic acid (48) as a reference (Figure 5).^[ [34] ^]

[3] = Kinetic solubility in phosphate-buffered saline, pH 7.4; assay type: physicochemical; conditions: for solubility at 2 h: PBS solubility
Method: page 239: 7. […] The data […] analysis software. […] page 240: Methods Kinetic solubility assay was performed according to Enamine's aqueous solubility SOP. Briefly, […] theoretical concentration of 400 μM in duplicates in phosphate-buffered saline pH 7.4 […] The experimental compound dilutions in PBS were further allowed to equilibrate at 25 °C on a thermostatic shaker for two hours and then filtered through HTS filter plates using a vacuum manifold. The filtrates of test […] prepared to theoretical concentrations of 0 μM (blank), 10 μM, 25 μM, 50 μM, 100 μM, and 200 […] Ondansetron was used as a reference compound to control proper assay performance. 200 μL of each sample was transferred to a 96-well plate and measured in the 230-550 nm range with a 5 nm step. The concentrations of compounds in PBS filtrate are calculated using a dedicated Microsoft Excel calculation script. Proper absorbance wavelengths for calculations are selected for each compound manually based on absorbance maximums (absolute absorbance unit values for the minimum and maximum concentration points within the 0 - 3 OD range). Each final dataset is visually evaluated by the operator, and goodness of fit (R2) is calculated for each calibration curve. […] close to the upper limit of the range may have higher actual solubility (e.g. 5'-deoxy-5- fluorouridine). The calibration curves are shown in Appendix*. […] Compound ID PBS solubility, pH 7.4, μM SE […] Ondansetron 128 126 127** 1.1 EN300-7362818 6 6 6 0.2 (Sonidegib) BCHep-Sonidegib (50) 5 3 4 0.9 Table S3. 2nd batch PBS solubility, pH 7.4, μM Compound ID SE […] Ondansetron 124 124 124** 0.1 EN300-45381956 (51) 34 34 34 0.2 *Goodness of fit (R2) in all titration curves as well as the variations between repeat measurements indicates a high quality of the experimental data in the current batch of test articles. **Ondansetron solubility data are consistent with those previously obtained. […]

[4] = Metabolic stability in human liver microsomes; assay type: in vitro ADME; conditions: for remaining at […], 2 µM: 15 min
Method: 9. Metabolic Stability in Human Liver Microsomes
The objective of this study was to determine the metabolic stability of 3 test articles (EN300- […]
in human liver microsomes at five-time points over 40 minutes using HPLC-MS. Metabolic stability is defined as the percentage of parent compound lost over time in the presence of a metabolically active test system.
Potassium phosphate monobasic (Bio-Basic, Canada; Lot #N9016010)
Potassium phosphate dibasic (Bio-Basic, Canada; Lot #MA7100050) […]
Glucose-6-phosphate dehydrogenase from baker's yeast, type XV (Sigma-Aldrich, USA; Cat […]
D-Glucose-6-phosphate sodium salt (Sigma-Aldrich, USA; Cat #G7879-1G)
NADPH tetrasodium salt (BLD Pharmatech Ltd., Cat #BD116582)
Verapamil hydrochloride (Sigma Aldrich, USA; Cat #V4629)
Niclosamide (Sigma-Aldrich, USA; Cat #N3510)
DMSO stock solutions of the tested compounds 20 mM
Gradient HPLC system (Shimadzu)
Triple quadrupole mass-detector API 3000 with TurboIonSpray Ion Source (AB Sciex, Canada) […]
Multichannel pipettors 1-30 µL, 2-125 µL, 30-850 µL (Thermo Scientific) […]
All measurements were performed using the Shimadzu HPLC system including vacuum degasser, gradient pumps, reverse phase HPLC column, column oven, and autosampler. Mass spectrometric analysis was performed using an API 3000 mass spectrometer from Applied Biosystems/MDS Sciex (AB Sciex) with Turbo V ion source and TurboIonspray interface. The […]
and system control were performed using Analyst 1.6.3 software from AB Sciex.
Microsomal incubations were carried out in 96-well plates in 5 aliquots of 30 μL each (one for each time point). Liver microsomal incubation medium comprised of phosphate buffer (100 mM, pH 7.4), MgCl2 (3.3 mM), NADPН (3 mM), glucose-6-phosphate (5.3 mM), glucose-6-phosphate dehydrogenase (0.67 units/mL) with 0.42 mg of liver microsomal protein per mL. In the control reactions, the NADPH-cofactor system was substituted with phosphate buffer. Test compounds […]
100 rpm. Five-time points over 40 minutes were analyzed. The reactions were stopped by adding 5 volumes of acetonitrile with internal standard to incubation aliquots, followed by protein sedimentation by centrifuging at 5500 rpm for 5 min. Each reaction was performed in duplicates.
Supernatants were analyzed using the HPLC system coupled with a tandem mass spectrometer.
The elimination constant (kel), half-life (t1/2), and intrinsic clearance (Clint) were determined in a plot of […] versus time, using linear regression analysis:1
1 In order to indicate the quality of the linear regression analysis, the R2 (determination coefficient) values are provided.
In some cases, the last time point is excluded from the calculations to ensure acceptable logarithmic linearity of decay.

[5] = design: method as in earlier work; conditions: cited from earlier work
[6] = system: Hedgehog signaling pathway; conditions: Mus musculus, NIH3T3, read-out: IC50 (HH signal): inhibition of the Hedgehog signaling pathway, Gli reporter NIH3T3 cell line
[7] = Table S4, 1st batch, incubation 1
[8] = Table S4, 1st batch, incubation 2
[9] = Table S4, 1st batch, incubation 3
[10] = 25 °C, pH 7.4, aqueous buffer, kinetic from dmso stock, pH 7.4, Incubation 1
[11] = 25 °C, pH 7.4, aqueous buffer, kinetic from dmso stock, pH 7.4, Incubation 2
[12] = 25 °C, pH 7.4, aqueous buffer, kinetic from dmso stock, pH 7.4, Mean
[13] = both sexes, human, liver microsomes, pH 7.4, Table S6, 1st batch, 2 µM

For `COC(=O)Nc1nc2ccc(C(=O)c3ccccc3)cc2[nH]1` [Mebendazole], which D [7] is on record?
The D was 8.21E+02.

And the D [8]?
Its D is 8.87E+02.

And the D [9]?
Its D is 8.17E+02.

What about the D (Table S5, 2nd batch, incubation 1) of the same molecule?
Its D is 9.52E+02.

What about the D (Table S5, 2nd batch, incubation 2) of the same molecule?
Its D is 1.14E+03.

And the D (Table S5, 2nd batch, incubation 3)?
The D was 8.63E+02.

And the logD at 1 h (physchem; pH 7.4, LogD, pH 7.4)?
The logD at 1 h was 3.06.

With `CC(C(=O)O)c1cccc(C(=O)c2ccccc2)c1` (centres unmarked) [Ketoprofen] as the molecule, how does the Papp A→B (in vitro; Mean, 10 µM) read?
The Papp A→B was 21.8 ×10⁻⁶ cm/s.

And the Papp A→B (in vitro; replicate 1, 10 µM)?
The Papp A→B was 19.8 ×10⁻⁶ cm/s.

What about the Papp A→B (in vitro; replicate 2, 10 µM) of the same molecule?
The Papp A→B was 23.8 ×10⁻⁶ cm/s.

What about the Papp B→A (in vitro; Mean, 10 µM) of the same molecule?
The Papp B→A was 18.7 ×10⁻⁶ cm/s.

And the Papp B→A (in vitro; replicate 1, 10 µM)?
Its Papp B→A is 19.5 ×10⁻⁶ cm/s.

And the Papp B→A (in vitro; replicate 2, 10 µM)?
The Papp B→A was 17.9 ×10⁻⁶ cm/s.

With `CC(C)(C)OC(=O)NC12COCC(C(=O)O)(C1)C2` [Compound 40] as the molecule, how does the thermal stability [1] read?
The thermal stability was “remained stable”.

For `CC12CCCC(C(=O)O)(C1)C2` [Compound 49], which “pKa (exp.)” value [2] is on record?
Its value is 5.0.

What about the pKa [2] of the same molecule?
Its pKa is 5.03.

Which solubility at 2 h [3, 10] does the source give for `Cc1nccn1CC1CCc2c(c3ccccc3n2C)C1=O` (centres unmarked) [Ondansetron] here?
Its solubility at 2 h is 124 µM (≈ 36.4 µg/mL).

And the solubility at 2 h [3, 11]?
Its solubility at 2 h is 124 µM (≈ 36.4 µg/mL).

What about the solubility at 2 h [3, 12] of the same molecule?
Its solubility at 2 h is 124 µM (≈ 36.4 µg/mL).

What about the “PBS solubility, pH 7.4, Mean” value ([3]; Table S2, 1st batch) of the same molecule?
Its value is 127 µM.

What does the source list for `O=C(O)Cc1ccccc1Nc1c(Cl)cccc1Cl` [Diclofenac]?
% Remaining, Mean of 2 ([4]; Table S6, 1st batch, 25 min, 2 µM): 4%; % Remaining without cofactor, Mean of 2 ([4]; Table S6, 1st batch, 40 min, no NADPH): 95%; % Remaining, Mean of 2 ([4]; Table S7, 2nd batch, 25 min, 2 µM): 11%; % Remaining, Mean of 2 ([4]; Table S7, 2nd batch, 40 min, 2 µM): 2%; remaining at 7 min, 2 µM [4, 13]: 46%; remaining at […], 2 µM [4, 13]: 15%; remaining at […], 2 µM ([4]; both sexes, human, liver microsomes, pH 7.4, Table S7, 2nd batch, 2 µM): 26%; microsomal CLint at 2 μM ([4]; both sexes, human, liver microsomes, pH 7.4, Table S7, 2nd batch, read-out: Clint): 223 µL/min/mg

Which results are given for `CC12COCC(C(=O)O)(C1)C2` [Compound 18b]?
pKa (exp.) [2]: 4.2; pKa [2]: 4.23

With `Cc1cccc(C(=O)O)c1` [Compound 48, meta‐methyl benzoic acid] as the molecule, how does the “pKa (exp.)” value [5] read?
The value was 4.27 and 4.3.

With `CC1CN(c2ccc(NC(=O)C34CCCC(c5ccc(OC(F)(F)F)cc5)(C3)C4)cn2)CC(C)O1` (centres unmarked) [Compound 50] as the molecule, how does the solubility kinetic at 2 h ([3]; 25 °C, pH 7.4, aqueous buffer, kinetic from dmso stock) read?
The solubility kinetic at 2 h was 4 µM (≈ 1.96 µg/mL).

What about the solubility at 2 h [3, 10] of the same molecule?
The solubility at 2 h was 5 µM (≈ 2.45 µg/mL).

And the solubility at 2 h [3, 11]?
Its solubility at 2 h is 3 µM (≈ 1.47 µg/mL).

What about the solubility at 2 h [3, 12] of the same molecule?
The solubility at 2 h was 4 µM (≈ 1.96 µg/mL).

And the half-life at 2 μM ([4]; both sexes, human, human liver microsomes, pH 7.4, human liver microsomes, read-out: t1/2: experimental half-time of a metabolic decomposition)?
Its half-life at 2 μM is 2 h.

What about the microsomal CLint at 2 μM ([4]; both sexes, human, human liver microsomes, pH 7.4, read-out: CLint: experimental metabolic stability in human liver microsomes) of the same molecule?
Its microsomal CLint at 2 μM is 14 µL/min/mg.

And the remaining at 7 min, 2 µM [4, 13]?
The remaining at 7 min, 2 µM was 92%.

What about the remaining at […], 2 µM [4, 13] of the same molecule?
The remaining at […], 2 µM was 98%.

What about the remaining at 25 min, 2 µM ([4]; both sexes, human, liver microsomes, pH 7.4, Table S6, 1st batch, 25 min, 2 µM) of the same molecule?
The remaining at 25 min, 2 µM was 88%.

And the remaining at 40 min, 2 µM ([4]; both sexes, human, liver microsomes, pH 7.4, Table S6, 1st batch, 40 min, 2 µM, read-out: % Remaining, Mean of 2)?
The remaining at 40 min, 2 µM was 78%.

What about the remaining at 40 min, 2 µM ([4]; both sexes, human, liver microsomes, pH 7.4, Table S6, 1st batch, 40 min, no NADPH, read-out: % Remaining without cofactor, Mean of 2) of the same molecule?
The remaining at 40 min, 2 µM was 93%.

What about the k el at 2 µM ([4]; both sexes, human, liver microsomes, pH 7.4, Table S6, 1st batch) of the same molecule?
The k el at 2 µM was roughly 0.0001 s⁻¹.

What about the microsomal CLint at 2 μM ([4]; both sexes, human, liver microsomes, pH 7.4, Table S6, 1st batch, read-out: Clint) of the same molecule?
Its microsomal CLint at 2 μM is roughly 14 µL/min/mg.

And the half-life at 2 μM ([4]; both sexes, human, liver microsomes, pH 7.4, Table S6, 1st batch, read-out: t1/2)?
The half-life at 2 μM was roughly 2 h.

And the D [7]?
Its D is 8.66E+04.

And the D [8]?
Its D is 8.31E+04.

And the D [9]?
Its D is 8.70E+04.

What about the logD at 1 h (physchem; pH 7.4, LogD, pH 7.4) of the same molecule?
Its logD at 1 h is no less than 4.5.

What about the logD at 1 h (physchem; pH 7.4, LogD, pH 7.4 (overall of 3 incubations)) of the same molecule?
Its logD at 1 h is no less than 4.5.

And the logD at 1 h (physchem; pH 7.4, logD (7.4): experimental distribution coefficient in n-octanol/phosphate-buffered saline, pH 7.4)?
Its logD at 1 h is no less than 4.

And the IC50 [6]?
The IC50 was 616 nM.

For `O=C(O)C12COCC(c3ccc(Br)cc3)(C1)C2` [Compound 11b], which thermal stability [1] is on record?
Its thermal stability is “remained stable”.

Reference: PMC12171319, “3‐Oxabicyclo[3.1.1]heptane as an Isostere of meta‐Benzene” (Angewandte Chemie (International Ed. in English), 2025)
